{"source": "patent US9802929B2", "about": "“Benzo five-membered nitrogen heterocyclic piperidine or piperazine derivatives and preparation methods and pharmaceutical compositions thereof” (Shenyang Haiwang Biotechnology Co., Ltd., priority 2012, dated 2017)", "key": {"[1]": {"test": "Acute toxicity test, simplified probability unit method", "settings": "both sexes, mouse, in vivo; oral administration, Kunming mice"}, "[2]": {"test_system": "In-Vitro Vascular Smooth Muscle of Rabbits", "test": "Relaxant effect on in vitro rabbit vascular smooth muscle contraction induced by hyperkalemia solution", "settings": "Oryctolagus cuniculus, relaxation of rabbit aortic rings contracted by hyperkalemia solution (K+ 60 mmol/L)"}, "Ca^2+ channel": {"test_system": "Ca^2+ channel", "test": "Antagonism of CaCl2 cumulative contraction of rabbit aorta, pA2", "settings": "CaCl2 cumulative contraction after Ca-free hyperkalemia depolarization", "source_text": "Calcium-free K—H solution: Remove CaCl2 from K—H solution, add an equal number of moles of KCl, and add EDTA^−2Na^+ 0.1 mmol/L, while the other components remain unchanged.\nCalcium-free hyperkalemia solution: Remove CaCl2 from hyperkalemia solution, add an equal number of moles of KCl, and add EDTA^−2Na^+ 0.1 mmol/L, while the other components remain unchanged.\n(§1) Cut the chest open quickly after stunning, strip out the descending aorta, then after removing the surrounding connective tissue and adipose tissue (if performed serotonin receptor antagonist experiments, endothelial cells should be removed using a smooth stainless steel bars), cut the vessels into 3-5 mm vascular ring, then pass the steel hook through the blood vessel ring, with one end is fixed to the vent hook and the other end connected to the tension transducer, then place the specimens into bath tube containing 20 mL of nutrient solution, and record tension change by tension transducer. Maintain tube temperature at 37±0.5° C., and pass bubbles (95% O2+5% CO2) into the solution as a speed of 1-2 bubbles/minute. Place an initial load of 1.5 g on the rings, and change nutrient every 20 minutes, then balance for 2 hours and start test after baseline readings are stabilized.\nAfter the tension is stabilized, wash the specimen three times and incubate with Ca-free K—H solution for 40 minutes; depolarize with Ca-free hyperkalemia solution for 20 minutes, and then add CaCl2 (10^−6-10^−2 mol/L) to the tube until a maximum response is achieved, and then record the curve. Then wash with K—H solution repeatedly, and replace with fresh K—H solution every 20 minutes; after balancing for 60 minutes and the baseline values are stabilized, wash the specimen again three times, and incubate with Ca-free K—H solution for 40 minutes; depolarize with Ca-free hyperkalemia solution for 20 minutes, and then add compound II-36 (3×10^−6 mol/L) to the tube, and incubate for 20 minutes; then add CaCl2 (10^−6-10^−2 mol/L) until a maximum response is achieved, and then record the curve. Mark CaCl2 contraction as ordinate using maximum response as 100% base. […] PA2 value of compound II-36 is 5.61±0.04 against CaCl2 contraction effect on rabbit aorta.\nAfter the tension is stabilized, wash the specimen three times and incubate with Ca-free K—H solution for 40 minutes; depolarize with Ca-free hyperkalemia solution for 20 minutes, and then add CaCl2 (10^−6-10^−2 mol/L) to the tube until a maximum response is achieved, and then record the curve. […]"}, "Kunming mice": {"test_system": "Kunming mice", "test": "Bone marrow micronucleus test", "settings": "of 1000 polychromatic erythrocytes; oral, four days, test on the 5th day; II-36 120 mg/kg/day, cyclophosphamide 60 mg/kg/day", "protocol": "After four days of continuous administration, perform bone marrow micronucleus test on the 5th day.\nPositive contro, Cyclophosphamide 60 mg/kg/day; negative control, saline solution 0.1 ml/10 g/day. After four days of continuous administration, perform bone marrow micronucleus test on the 5th day.\nThe mice were sacrificed by cervical dislocation, and quickly stripped out of the femur and sternum;\nblood and muscles were removed, epiphysis was cleaned; then sternum bone marrow was transfer with a hemostat squeeze onto clean slides with drops of calf serum or wash the femoral the marrow with fetal calf serum directly onto clean slides; after mixing, adjust slides well; then put the adjusted and aired slide into a staining jar filled with methanol, and allow to fix for 15 minutes; and then take it out and place in air until dry out; then, use freshly prepared Giemsa application solution (one sample of Giemsa stock solution and nine samples of phosphate buffer pH 6.8), stained for 10 minutes to wash away slide dye with small stream of water, and then observe under a microscope after it is dried."}, "α1 receptors": {"test_system": "α1 receptors", "test": "Antagonism of α receptor agonist (noradrenaline / phenylephrine) cumulative contraction of rabbit aorta, pA2", "source_text": "as §1\nAfter the tension is stabilized, record a certain length of the curve, and add NA (10^−8-10^−4 mol/L) to the tube until a maximum response is achieved, and then record the curve. Then wash the specimen with K—H solution repeatedly, balance for 1 h, add compound II-36 (3×10^−7 mol/L), and 20 minutes later, add NA following a same procedure. Mark NA contraction as ordinate using maximum response as 100% base. […] The larger the PA2 value, the stronger the antagonist effect. It is calculated based on the values of the attached figures by software.\nAfter the tension is stabilized, record a certain length of the curve, and add NA (10^−8-10^−4 mol/L) to the tube until a maximum response is achieved, and then record the curve. Then wash the specimens repeatedly with K—H solution, and refresh K—H solution every 20 minutes, and balance for 60 minutes to allow baseline values are stabilized; then add doxazosin (10^−7 mol/L) and after 15 minutes, add NA in the same way (10^−8-6×10^−5 mol/L). Mark NA contraction as ordinate using maximum response as 100% base. […] The PA2 value of positive control doxazosin is 7.52±0.04 against NA contraction of rabbit aorta.\n(§2) After the tension is stabilized, record a certain length of the curve, and add NA (3×10^−7-6×10^−5 mol/L) to the tube until a maximum response is achieved, and then record the curve. Then wash the specimen with K—H solution repeatedly, balance for 1 h, add compound II-65 (3×10^−6 mol/L), and 20 minutes later, add NA (3×10^−7-3×10^−4 mol/L) following a same procedure. Mark NA contraction as ordinate using maximum response as 100% base. […] PA2 value of compound II-65 is 6.02±0.13 against NA contraction effect on rabbit aorta.\nAfter above procedures, wash the specimen repeatedly with K—H solution, balance for 1 hour, add doxazosin (10^−7 mol/L), and add NA in the same way after 15 minutes. Mark NA contraction as ordinate using maximum response as 100% base. […] The PA2 value of positive control doxazosin is 7.16±0.24 against NA contraction of rabbit aorta.\nas §2, with “Phenylephrine (10^−6-6×10^−3” for “NA (3×10^−7-6×10^−5”, “II-68 (3×10^−8” for “II-65 (3×10^−6”, “Phenylephrine” for “NA (3×10^−7-3×10^−4 mol/L)”, “Phenylephrine” for “NA”, “II-68” for “II-65”, “8.45±0.03” for “6.02±0.13”"}}, "note": "pEC50: −log10 of the molar value. Where “and” joins values, the source holds several entries; their conditions need not be identical. Identical values can stand only once. Counter-ions that a name gives are not always drawn.", "data": [{"smiles": "Clc1cccc(C2CCN(CCCCn3nnc4ccccc43)CC2)c1", "note": "[II-2, N-(4-(1H-benzotriazole-1-yl)butyl)-4-(3-chlorophenyl)piperidine]", "values": [{"measurement": "LD50", "setting": "[1]", "value": 362, "unit": "mg/kg"}, {"measurement": "pEC50", "setting": "[2]", "value": 4.82}]}, {"smiles": "CCOC(=O)C1=C(COCCN)NC(C)=C(C(=O)OC)C1c1ccccc1Cl", "note": "(stereo not drawn) [amlodipine, Amlodipine Besylate, reference compound]", "values": [{"measurement": "PA2 value against CaCl2 contraction", "setting": "Ca^2+ channel", "value": "6.99±0.05 and 7.15±0.288"}]}, {"smiles": "O=P1(N(CCCl)CCCl)NCCCO1", "note": "(stereo not drawn) [cyclophosphamide, Cyclophosphamide, reference compound]", "values": [{"measurement": "polychromatic erythrocytes with micronucleus", "setting": "Kunming mice", "value": "12 ‰"}]}, {"smiles": "COc1cc2nc(N3CCN(C(=O)C4COc5ccccc5O4)CC3)nc(N)c2cc1OC", "note": "(stereo not drawn) [doxazosin, Doxazosin Mesylate, reference compound]", "values": [{"measurement": "PA2 value against Phenylephrine contraction", "setting": "α1 receptors; Phenylephrine cumulative contraction", "value": "7.52±0.04"}, {"measurement": "PA2 value against NA contraction", "setting": "α1 receptors; noradrenaline (NA) cumulative contraction", "value": "7.52±0.04 and 7.16±0.24"}]}]}
